The source of these data is patent publication EP4711366A1, “PYRIMIDO MACROHETEROCYCLIC COMPOUND AS WEE1-YES DUAL-TARGET INHIBITOR AND USE THEREOF” (Mindrank AI Ltd., priority 2023, dated 2024).

The test system of assay [1] is SW620 human colon cancer cells. Kind of assay: In vivo efficacy study against SW620 tumors (subcutaneous tumor-bearing model). The following applies: for Relative tumor inhibition rate (%) Day 21 / Relative tumor volume Day 21: PO, QD×21. Set-up: species or system BALB/c nude mice. An excerpt:
(§1) SW620 human colon cancer cells were subcultured and expanded in an L-15 culture medium containing 10% FBS. BALB/c nude mice aged 6-8 weeks were taken and each subcutaneously injected with 1 × 10^6 cells to establish a tumor-bearing model. The tumor volume was monitored, and when the tumor volume reached about 150 mm^3, the animals were randomized into 5 groups according to body weight and tumor volume. The animals were given, by oral gavage, the vehicle or compounds to be tested (ZN-c3 and compound IE) once daily for a total of 21 days. During the period of administration, the tumor volume and the animal body weight were measured twice a week, and the animals' states were observed daily. At the endpoint, the animals were euthanized with carbon dioxide, and the subcutaneous tumors were isolated and weighed.
(§2) The data calculation formulae are shown below: The tumor volume (TV) was calculated using the formula 1/2×axb^2, where a and b represent the length and width measurements of the tumor, respectively.
The tumor growth inhibition rate (%TGITV) was calculated using the formula (1 - TVT/TVC) × 100%, where TVc represents the average tumor volume of the negative control group, and TVT represents the average tumor volume of the treatment group.
(§3) The relative tumor volume (RTV) was calculated using the formula Vt/V0, where V0 represents the tumor volume at the time of grouping, and Vt represents the tumor volume at each measurement.

Assay [2] concerns Human colon cancer LoVo cells. Kind of assay: In vivo efficacy study against LoVo tumors (subcutaneous tumor-bearing model). Set-up: species or system BALB/c nude mice. The conditions noted are these: for Relative tumor inhibition (%) Day 28 / Relative tumor volume Day 28: PO.
From the text: as §1, with “Human colon” for “SW620 human colon”, “cancer LoVo” for “cancer”, “an F12K” for “an L-15”, “with 2” for “with 1”, “and” for “and compound”, “of 28” for “of 21”
as §2
The tumor growth inhibition rate (%TGITV) was calculated using the formula (1 - TVT/TVC) × 100%, where TVC represents the average tumor volume of the negative control group, and TVT represents the average tumor volume of the treatment group.
as §3

The next assay has as its target YES1 kinase (Homo sapiens, UniProt P07947). Description: YES1 protein kinase inhibitory activity assay (HTRF). Type of assay: biochemical. The following applies: for IC50: HTRF, YES1 kinase, ATP 10 µM. Here is the method:
In this experiment, the capability of the compound MRANK-106 of the present disclosure to inhibit kinase activity was assessed by an HTRF method using a drug screening system based on the YES1 kinase.
Table 3-1. Information about reagents and consumables
The enzymatic activity conditions and HTRF system formulation are shown in Table 3-3; the experimental conditions for the kinase activity assay are shown in Table 3-4. Table 3-3. HTRF system formulation
Table 3-4. The experimental conditions for the kinase activity assay
The test compound MRANK-106 was dissolved in DMSO, and the solution was vortexed and shaken for thorough mixing. The solution was serially diluted 3-fold with DMSO, with the initial concentration being 503 nM.
① A 2× ATP/substrate solution and a 2× kinase solution were formulated using a kinase reaction buffer.
② 50 nL of the compound dilution was transferred to a 384 detection plate using Echo 655. After centrifugation, 2.5 µL of a 2× kinase solution was added to the 384 detection plate. The plate was centrifuged at 1000 rpm for 1 min and incubated at 25 °C for 10 min.
② 2.5 µL of the 2× substrate and ATP solution was added to the 384 detection plate, and the plate was centrifuged at 1000 rpm for 1 min and incubated at 25 °C for 60 min.
④ A 2× XL665 and antibody detection reagent was formulated using a detection buffer.
⑤ 5 µL of a kinase detection reagent was added to the detection plate, and the plate was incubated at 25 °C. The plate was centrifuged at 1000 rpm for 1 min and incubated at 25 °C for 1 h.
⑥ The fluorescence signals at 620 nm (Cryptate) and 665 nm (XL665) were read using a BMG high-throughput drug-screening multi-mode microplate reader.
With the reading of the negative control set as an inhibition rate of 0% and the reading of the positive control set as an inhibition rate of 100%, the inhibition rate of each test solution was calculated using the following formula: [formula] • Datapositive control: the average of the positive control well values • Datanegative control : the average of the negative control well values
The IC50 (half maximal inhibitory concentration) of the compound was obtained using the following nonlinear fitting formulas: Y = Bottom + (Top−Bottom)/(1+10^(∧)((LogIC50−X)*HillSlope)) [formula] • X: the log value of the compound concentration • Y: the inhibition rate (% inh) of the compound
The Z' factor calculation equation: Z′ = 1−3(SDmin+SDmax)/(AVEmax−AVEmin) [formula] where: • Min is the positive control Data value, and Max is the negative control DMSO Data value; • SD stands for standard deviation, and AVE stands for average.
A general note: In TR-FRET formats the signal depends on donor and acceptor labels being close together.

Some results are limits rather than exact numbers.

YES1 kinase, sequence (P07947 whole entry): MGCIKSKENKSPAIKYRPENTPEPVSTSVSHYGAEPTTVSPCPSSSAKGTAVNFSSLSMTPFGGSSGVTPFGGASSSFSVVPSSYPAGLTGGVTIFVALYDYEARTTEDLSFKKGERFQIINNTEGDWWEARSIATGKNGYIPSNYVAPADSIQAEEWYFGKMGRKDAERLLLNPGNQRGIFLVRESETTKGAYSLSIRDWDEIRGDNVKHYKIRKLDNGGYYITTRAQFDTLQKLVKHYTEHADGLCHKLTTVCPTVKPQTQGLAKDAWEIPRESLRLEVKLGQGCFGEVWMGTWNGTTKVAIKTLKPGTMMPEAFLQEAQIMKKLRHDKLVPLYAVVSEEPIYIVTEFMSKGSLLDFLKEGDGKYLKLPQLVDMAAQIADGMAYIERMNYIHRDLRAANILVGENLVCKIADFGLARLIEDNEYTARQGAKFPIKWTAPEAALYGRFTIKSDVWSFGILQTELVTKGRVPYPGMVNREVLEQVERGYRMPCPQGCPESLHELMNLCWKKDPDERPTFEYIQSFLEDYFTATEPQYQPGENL

The term IC50 denotes the concentration at which inhibition is half-maximal. Lower therefore signals greater potency in that assay. As for `C=CCn1c(=O)c2cnc(Nc3ccc(N4CCN(C)CC4)cc3)nc2n1-c1ccc2c(n1)C(O)(CC)CC2` (stereo not drawn) [ZN-c3, reference compound], in assay [1] (30mg/kg), the “Relative tumor inhibition rate (%) Day 21” value came to 28.24% and the “Relative tumor volume Day 21” value is on record as 8.57. Also, in assay [1] (80mg/kg), the “Relative tumor inhibition rate (%) Day 21” value is 36.78% and the “Relative tumor volume Day 21” value amounted to 7.94. For the same molecule, in assay [2] (80mg/kg, QD×28), the “Relative tumor inhibition (%) Day 28” value was determined as 57.98% and the “Relative tumor volume Day 28” value is 2.41. The half-maximal inhibitory concentration (IC50) against YES1 kinase was > 500 nM.

Regarding `Cc1cc(Nc2ncc3c(=O)n4n(c3n2)-c2cccc(n2)[C@](C)(O)CCC=CC4)ccc1OC1CCN(C)CC1` (stereo in doubt) [Compound IE, (R,Z)-12-hydroxy-12-methyl-2-((3-methyl-4-((1-methylpiperidin-4-yl)oxy)phenyl)amino)-7,10,11,12-tetrahydro-5H-13,17-(azeno)pyrimido[4',5':3,4]pyrazolo[1,2-a] [1,2]diazacyclotridecin-5-one], the “Relative tumor inhibition rate (%) Day 21” value in assay [1] (30mg/kg) is on record as 38.18%; in assay [1] (80mg/kg) it was 78.38%. The “Relative tumor volume Day 21” value is listed as 7.31 in assay [1] (30mg/kg) and 2.57 in assay [1] (80mg/kg). The “activity in inhibiting tumor growth in the SW620 tumor model compared with ZN-c3” value in assay [1] (comparison in words) was “higher activity than the reference molecule ZN-c3”. Moreover, the “Relative tumor inhibition (%) Day 28” value in assay [2] (20 mg/kg, QD × 28) stood at 60.90%; in assay [2] (40 mg/kg, QD × 28), 89.12%; in assay [2] (80mg/kg, QD×28), 97.12%. The “Relative tumor volume Day 28” value in assay [2] (20 mg/kg, QD × 28) amounted to 2.28; in assay [2] (40 mg/kg, QD × 28) it was 0.63; in assay [2] (80mg/kg, QD×28) it was 0.17. Also, in assay [2] (comparison in words), the “activity in inhibiting tumor growth in the LoVo tumor model compared with ZN-c3” value is given as “significantly better activity than ZN-c3”. The IC50 against YES1 kinase was 3.05 nM. Also, on YES1 kinase (summary statement on the assay results), the “inhibition of the Yes target (in words)” value is “strongly inhibited”.
